These results are taken from patent US8901314B2, “Substituted pyrazoles as N-type calcium channel blockers” (Janssen Pharmaceutica NV, priority 2012, dated 2014).

In experiment [1] the target is α1B (Cav2.2), β3 and α2δ subunits of the N-type calcium channel (stable HEK cell line) (Rattus norvegicus, UniProt Q02294). Put plainly: Calcium-dye indicator assay (FDSS, KCl depolarization). The class given is cell-based. The settings on record: calcium mobilization response to 50 mM KCl; six-point concentration-response. On the procedure:
A stable cell line (HEK parent) co-expressing the α1B (Cav2.2), β3 and α2δ subunits of the N-type calcium channel subunits was used. These cells were routinely grown as monolayers in low glucose-containing Dulbecco's Modified Eagle Medium supplemented with 10% FBS, 2 mM L-glutamine, 100 I.U./mL penicillin, 100 μg/mL streptomycin, 400 μg/mL G418 and 200 μg/mL Zeocin (split ratio=1:5). Cells were maintained in 5% CO2 at 37° C. Compounds of Formula (I) were prepared as 10 mM stocks in DMSO from neat compound, if available. Otherwise, the 5 or 10 mM DMSO stock solutions provided in-house were used.
Calcium mobilization responses to KCl depolarization were evaluated by measuring the intensity of calcium-mediated fluorescent signal in the presence of BD Calcium Assay Dye (BD Biosciences, Franklin Lakes, N.J., U.S.A.), utilizing a Functional Drug Screening System (FDSS) by Hamamatsu Corporation (Bridgewater, N.J., U.S.A.).
Twenty-four hours prior to assay, cells were seeded in clear-base poly-D-lysine coated 384-well plates (BD Biosciences) at a density of 5,000 cells per well in culture medium and grown overnight in 5% CO2 at 37° C. On the day of assay growth media were removed and cells were loaded with BD calcium assay dye (BD Biosciences) for 35 min at 37° C. under 5% CO2 and then for 25 min at room temperature. Utilizing the FDSS, cells were exposed to representative compounds of Formula (I) at varying concentrations and intracellular calcium was measured for 5 min prior to the addition of 50 mM KCl for an additional 3 min of measurement.
Maximal fluorescence intensity (FI) achieved upon addition of 50 mM KCl was exported from the FDSS software and further analyzed using GraphPad Prism 4 (Graph Pad Software Inc., CA, U.S.A.). Data were normalized to the maximum average counts from quadruplicate wells for each condition in the presence of 50 mM KCl and to the minimum average counts in the presence of buffer. Theoretical curves were generated using nonlinear regression curve-fitting analysis of either sigmoidal concentration-response or sigmoidal concentration-response (variable slope), and the IC50 values with the best-fit dose curve determined by GraphPad Prism were reported.
Background: A change in cytosolic calcium serves as a functional read-out for many receptors and channels.

Experiment [2] deals with Cav2.2 (N-type calcium channel; α1B, α2δ and β3 subunits stably expressed in HEK293 cells). Kind of experiment: Automated electrophysiology assay (QPatch-HT patch clamp). The format is cell-based. On the procedure: The Cav2.2 (α1B) subunit (GenBank accession no. AAO53230; supplied by Lipscombe's laboratory at Brown University) was subcloned into pcDNA3.1, whereas the α2δ (M86621) and β3 (M88751) subunits were subcloned into pBudCE4.1 vectors. Stable cell lines expressing all three subunits were generated according to the following procedure: 1) HEK293 cells were transfected with α2δ−1/β3 expression constructs resulting in a stable cell line expressing α2δ−1 and β3 subunits that were selected under 200 μg/mL of Zeocin; 2) a stable cell line expressing α2δ−1/β3 subunits in high quantity as evidenced in its Western blots was isolated from the colony and purified; 3) this cell line was further transfected with Cav2.2 expression constructs, from which cells were subsequently selected under 400 μg/mL G418 and 200 μg/mL Zeocin; 4) these cells were clonally isolated, expanded and screened by Western blot analysis for expressing all three subunits
Cultures of cells stably expressing Cav2.2 were maintained at 37° C. in low glucose-containing Dulbecco's Modified Eagle medium (low glucose) under a 5% CO2 atmosphere. The medium was supplemented with 10% fetal bovine serum, 2 mM L-glutamine, 100 IU/mL penicillin, […] streptomycin, 400 μg/mL G418 and 200 μg/mL Zeocin.
High-throughput automated patch clamp system experiments were carried out using instruments (QPatch-HT) available from Sophion Biosciences, Inc. North Brunswick, N.J. Cells were grown in T175 flasks to 50%-90% confluence were enzymatically treated with Deatchin (Genlantis, San Diego, Calif., U.S.A.), centrifuged, rinsed and resuspended in 293 SFM II media (Life Technologies, Grand Island, N.Y., U.S.A.) supplemented with 25 mM HEPES (Sigma-Aldrich, St. Louis, Mo., U.S.A.) to a concentration of 2−3×10^6 cells/mL. Cells were added to automated cell preparation station on the QPatch-HT (Sophion Biosciences, North Brunswick, N.J., U.S.A.) and following a 10- to 30-min recovery period with gentle stirring, the assay protocol was initiated. During the automated cell preparation, cells were collected, centrifuged and resuspended in an extracellular (EC) solution containing 132 mM NaCl, 1.8 mM CaCl2, 5.4 mM KCl, 0.8 mM MgCl2, 10 mM glucose, and 10 mM HEPES (pH=7.4), adjusted with sucrose to 315 m0sm. The QPlate was primed with an intracellular solution containing 135 CsCl, 10 mM EGTA, 4 MgATP, 0.3 NaGTP, and 20 mM HEPES (pH=7.2), adjusted to approximately 290 m0sm with deionized water and the EC solution. Cells were added to the prepared QPlate wells by robotic pipettes of the QPatch-HT.
For cells determined to be in stable whole-cell patch clamp, the EC solution was replaced with a barium (Ba)/triethylammonium (TEA) solution containing 140 mM TEA-Cl, 10 mM BaCl2, 0.8 mM MgCl2, 10 mM glucose, and 10 mM HEPES (pH=7.4). High (40 mM) BaCl2 concentrations were made with adjustments of TEA-Cl (90 mM) to maintain the osmolarity. From a resting potential of −80 mV, a train of depolarizing pulses (15 pulses at 5 Hz, +20 mV) was delivered to the cell once every 30 sec for eight trains (4 min total), and the resulting currents were measured during a control period (no compound). This protocol was repeated for each subsequent addition of control buffer with or without compound (three periods total, each with four trains). The current generated in the 1st and 15th pulses of the last train of each period in the presence of each drug concentration was normalized to the current generated during the control period at the respective pulses (representing low- and high frequency stimulation, respectively). Data from both the second and third drug application period were analyzed for each cell. A final addition of Ba/TEA solution containing 60-100 uM CdCl2 was made to block all N-type current and “zero” the currents for each cell. A buffer/compound additions were made using a “spitting” feature of the QPatch-HT, which added three repretitions of 5 μL solution at the beginning of each recording period.

The mark [3] stands for this setting: 0.1 μM, high frequency stimulation (15th pulse of 5 Hz train).
[4] abbreviates: 0.1 μM, low frequency stimulation (1st pulse of train).

A word on the IC50: it is the point on the concentration scale where inhibition reaches its midpoint. For the compound `COc1ccccc1-n1nc(C2CC(C)(C)OC(C)(C)C2)cc1-c1cc2ccccc2o1` [Compound 41, 5-(1-Benzofuran-2-yl)-1-(2-methoxyphenyl)-3-(2,2,6,6-tetramethyltetrahydro-2H-pyran-4-yl)-1H-pyrazole], the IC50 in experiment [1] was 65 nM.
Take `CC1(C)CC(c2cc(-c3ccc(Cl)cc3)n(-c3ccccc3N3CCCC3)n2)CC(C)(C)O1` [Compound 76, 5-(4-Chlorophenyl)-1-(2-pyrrolidin-1-ylphenyl)-3-(2,2,6,6-tetramethyltetrahydro-2H-pyran-4-yl)-1H-pyrazole]: in experiment [1], the IC50 stood at 100 nM.
For `COc1ccccc1-n1nc(C2=CC(C)(C)OC2(C)C)cc1-c1ccc(Cl)cc1` [Compound 97, 5-(4-Chlorophenyl)-1-(2-methoxyphenyl)-3-(2,2,5,5-tetramethyl-2,5-dihydrofuran-3-yl)-1H-pyrazole], the IC50 in experiment [1] worked out at 13 nM.
Still for that read-out and setting: with `CC(C)Oc1ccccc1-n1nc(C2CC(C)(C)OC(C)(C)C2)cc1-c1ccc(Cl)cc1` [Compound 7, 5-(4-Chlorophenyl)-1-[2-(1-methylethoxy)phenyl]-3-(2,2,6,6-tetramethyltetrahydro-2H-pyran-4-yl)-1H-pyrazole] the figure was 1.2 nM.
Regarding `COc1ccccc1-n1nc(C2CC(C)(C)S(=O)(=O)C(C)(C)C2)cc1-c1ccc(Cl)cc1` [Compound 59, 5-(4-Chlorophenyl)-1-(2-methoxyphenyl)-3-(2,2,6,6-tetramethyl-1,1-dioxidotetrahydro-2H-thiopyran-4-yl)-1H-pyrazole], in experiment [2] (setting [3]), the “QPatch % Inhibition, High Freq” value is reported as 54%. The “QPatch % Inhibition, Low Freq” value in experiment [2] (setting [4]) is given as 54%.
Turning to `COc1ccccc1-n1nc(C2CCOCC2)cc1-c1ccc(Cl)cc1` [Compound 71, 5-(4-Chlorophenyl)-1-(2-methoxyphenyl)-3-(tetrahydro-2H-pyran-4-yl)-1H-pyrazole], in experiment [1], the IC50 is 31 nM.
With `CCN(CC)C(=O)c1ccc(-c2cc(C3CC(C)(C)OC(C)(C)C3)nn2-c2ccccc2OC)cc1` [Compound 40, N,N-Diethyl-4-[1-(2-methoxyphenyl)-3-(2,2,6,6-tetramethyltetrahydro-2H-pyran-4-yl)-1H-pyrazol-5-yl]-benzamide], the IC50 in experiment [1] was 270 nM.
For `COc1ncc(-c2cc(C3CC(C)(C)OC(C)(C)C3)nn2-c2ccccc2OC)cn1` [Compound 39, 2-Methoxy-5-[1-(2-methoxyphenyl)-3-(2,2,6,6-tetramethyltetrahydro-2H-pyran-4-yl)-1H-pyrazol-5-yl]pyrimidine], in experiment [1], the IC50 was found to be 72 nM.
As to `CCc1ccccc1-n1nc(C2CCOCC2)cc1-c1ccc(Cl)cc1` [Compound 77, 5-(4-Chlorophenyl)-1-(2-ethylphenyl)-3-(tetrahydro-2H-pyran-4-yl)-1H-pyrazole], the IC50 in experiment [1] was found to be 150 nM.
As for `COc1ccccc1-n1nc(C2CC(C)(C)OC(C)(C)C2)cc1-c1ccc2c(c1)OCCO2` [Compound 27, 5-(2,3-Dihydro-1,4-benzodioxin-6-yl)-1-(2-methoxyphenyl)-3-(2,2,6,6-tetramethyltetrahydro-2H-pyran-4-yl)-1H-pyrazole], in experiment [1], the half-inhibitory concentration (IC50) turned out to be 1.5 nM.
With `FC(F)(F)Oc1ccccc1-n1nc(C2CCOCC2)cc1-c1ccc(Cl)cc1` [Compound 79, 5-(4-Chlorophenyl)-3-(tetrahydro-2H-pyran-4-yl)-1-[2-(trifluoromethoxy)phenyl]-1H-pyrazole], the IC50 in experiment [1] came to 180 nM.
Consider `COc1ccccc1-n1nc([C@@H]2CCO[C@@H](C(C)C)C2)cc1-c1ccc(Cl)cc1` (relative stereo) [Compound 69, 5-(4-Chlorophenyl)-1-(2-methoxyphenyl)-3-[(trans)-2-(1-methylethyl)tetrahydro-2H-pyran-4-yl]-1H-pyrazole], for which the half-inhibitory concentration (IC50) in experiment [1] came to 20 nM.
Take `COc1ccccc1-n1nc(C2CC(C)(C)OC(C)(C)C2)cc1-c1ncc(C)s1` [Compound 38, 2-[1-(2-Methoxyphenyl)-3-(2,2,6,6-tetramethyltetrahydro-2H-pyran-4-yl)-1H-pyrazol-5-yl]-5-methyl-1,3-thiazole]: in experiment [1], the IC50 was determined as 110 nM.
For the compound `COc1ccccc1-n1nc(C2CC(C)(C)OC(C)(C)C2)cc1-c1ccnc(Cl)c1` [Compound 25, 2-Chloro-4-[1-(2-methoxyphenyl)-3-(2,2,6,6-tetramethyltetrahydro-2H-pyran-4-yl)-1H-pyrazol-5-yl]pyridine], in experiment [2] (setting [3]), the “QPatch % Inhibition, High Freq” value is reported as 29%. In experiment [2] (setting [4]), the “QPatch % Inhibition, Low Freq” value was determined as 14%.
In the case of `COc1ccccc1-n1nc(C2CC(C)(C)SC(C)(C)C2)cc1-c1ccc(Cl)cc1` [Compound 58, 5-(4-Chloro-phenyl)-1-(2-methoxy-phenyl)-3-(2,2,6,6-tetramethyl-tetrahydro-thiopyran-4-yl)-1H-pyrazole], in experiment [2] (setting [3]), the “QPatch % Inhibition, High Freq” value turned out to be 26%. In addition, in experiment [2] (setting [4]), the “QPatch % Inhibition, Low Freq” value was determined as 19%.
With `CC1(C)CC(c2cc(-c3ccc(Cl)cc3)n(-c3ccccn3)n2)CC(C)(C)O1` [Compound 50, 2-[5-(4-Chloro-phenyl)-3-(2,2,6,6-tetramethyl-tetrahydro-pyran-4-yl)-pyrazol-1-yl]-pyridine], in experiment [2] (0.1 µM), the “QPatch % Inhibition, High Freq” value came out at 1% and the “QPatch % Inhibition, Low Freq” value is recorded as −37%.
As for `CC1(C)CC(c2cc(-c3ccc(Cl)cc3)n(-c3ccncc3)n2)CC(C)(C)O1` [Compound 51, 4-[5-(4-Chlorophenyl)-3-(2,2,6,6-tetramethyltetrahydro-2H-pyran-4-yl)-1H-pyrazol-1-yl]-pyridine], in experiment [2] (0.1 µM), the “QPatch % Inhibition, High Freq” value worked out at 22% and the “QPatch % Inhibition, Low Freq” value is given as −17%.
Consider `COc1ccccc1-n1nc(C2CC(C)(C)OC(C)(C)C2)cc1-c1ccc([S+](C)[O-])cc1` (stereo not drawn) [Compound 47, 5-(4-Methanesulfinyl-phenyl)-1-(2-methoxy-phenyl)-3-(2,2,6,6-tetramethyl-tetrahydro-pyran-4-yl)-1H-pyrazole], for which the “QPatch % Inhibition, High Freq” value in experiment [2] (setting [3]) is reported as 28%. For the same compound, the “QPatch % Inhibition, Low Freq” value in experiment [2] (setting [4]) stood at 25%.
